Results as given in publication PMC6811539, “Minute-scale persistence of a GPCR conformation state triggered by non-cognate G protein interactions primes signaling” (Nature Communications, 2019).
Where “and” joins values, the source holds several entries; their conditions need not be identical. Equal entries are not always repeated. Where two headings read alike, the source gives them in different places. Where a SMILES comes first, the peptide text is derived from it. The star is where a group is joined. Biotin = O=C1N[C@H]2[C@H](CS[C@H]2CCCCC(=O)*)N1

Experiments:
β2-AR SPASM sensors = β2-AR SPASM sensors (Homo sapiens, UniProt P07550); assay: cAMP accumulation in HEK293T cells expressing β2-AR SPASM sensors (cAMP Glo); type: cell-based; details: saturating agonist, normalized to β2-AR-(-), mean; for Emax: HEK-293T, read-out: Maximum cAMP (Emax)
PKC = assay: cAMP accumulation with PKC inhibitors in Gαq-overexpressing and untransfected HEK293T cells; type: cell-based, human; details: pretreatment with inhibitor 10 μM; fenoterol 10 μM, forskolin 2 μM
Description: (§1) For concentration–response curves with Gαq overexpression as well as the knockdown experiments, transfected and control cells (untransfected or mock short hairpin RNA transfected) were resuspended to equivalent concentration (4 × 10^6 cells/ml) based on Countess II numbers.

β2-AR-mCer = target: T1, β2-AR-mCer (Homo sapiens, UniProt P07550); assay: affinity pull-down and release (binding-and-release) assay for Gα peptide–β2-AR interaction; details: biotinylated peptide 30 μM, β2-mCer 10 nM
T1 construct: expressed in transfected cells; host or cells: native membranes of transiently transfected HEK293T cells
Description: Native membranes were prepared from cells expressing β2-mCer and stored in sucrose-supplemented buffer A as described above (Membrane preparations). Membranes were sonicated (3× bursts, 15 s with 1 min pauses) and resuspended in ΔFRET buffer minus Ca^2+ to a concentration of 10 nM receptor based on fluorescence counts. bioQp/bioSp (30 μM) and 100 μM isoproterenol were added and mixed for 5 min. Samples were split into duplicates, one of which was not manipulated in any way to obtain total receptor counts. To the other tube, 20 μl of 0.4 mg/ml streptavidin-coated magnetic beads were added, mixed, and precipitated using a Neodymium disc magnet N52 (20 × 40 mm). Supernatant was removed to a fresh micro-centrifuge tube to monitor fluorescence of receptors not bound to the beads. A solution of 100 μM Qp/Sp was added to the precipitated beads, mixed, and magnetically separated again. The supernatant was collected to determine the released fraction of receptors. Fluorescence of mCer was monitored on a FluoroMax 4 fluorometer (Horiba) using 430 nm excitation (8 nm bandpass) and emission scan from 450 to 500 nm, with the maximum at 475 nm being used for the calculation. Based on total and unbound counts, the amount of receptor bound was calculated (bound = total − unbound) and compared with the counts from the released receptor (% = released/bound). […]

V1A-R with purified Gαq = assay: activation of purified Gq (BODIPY-FL-GTPγS) in V1A-R membranes; type: biochemical, human (V1AR); Mus musculus (Gαq); details: hotspot swapped peptide vs. parent; vasopressin 100 nM
V1A-R SPASM sensors = assay: IP1 levels in HEK293T cells expressing V1A-R SPASM sensors; type: cell-based, human; details: hotspot swapped peptide vs. parent; vasopressin 100 nM
Description: HEK293T cells expressing the indicated sensor were collected 28–32 h post transfection, to assess IP1 levels using the IP-One HTRF assay kit (Cisbio). Cells were gently resuspended in their original media, counted using a hemocytometer, and centrifuged (300 × g, 3 min). An appropriate volume of StimB buffer (CisBio: 10 mM Hepes, 1 mM CaCl2, 0.5 mM MgCl2, 4.2 mM KCl, 146 mM NaCl, 5.5 mM glucose, 50 mM LiCl, pH 7.4) was added to reach a density of 3 × 10^6 cells/mL. Cells were incubated at 37 °C for 15 min. Cells were subsequently incubated with or without 100 nM of Arg-vasopressin peptide for 5 min at 37 °C. The manufacturer’s protocol was modified to achieve a high signal-to-noise ratio. […] IP1 FRET spectra were collected in top read format using a FlexStation3 plate reader with a delay of 50 μs and an integration time of 300 μs. […] FRET was calculated from ratio of the emission at […] to the emission at 620 nm. […]
Supplementary Figure 1 - Hot-spot substitutions in Gα peptides affect G protein activation and downstream signaling from V1A-R. (a) Activation of G protein (Gαq) is monitored by the increase in BODIPY fluorescence upon agonist stimulation of membranes harvested from HEK293T cells expressing V1A- R, and reconstituted with purified Gαq. […] Statistically significant differences were assessed by a one- way ANOVA, followed by Tukey’s post-ANOVA test. […]

[1] = extent of photocleavage of PC-Qp by MALDI-MS; type: physicochemical
Description: Native membranes were prepared from cells expressing β2-mCer and were stored in sucrose-supplemented buffer A as described above (Membrane preparations). […]. Both samples were centrifuged 100,000 × g, 5 min, 4 °C to sediment the membrane. Supernatants were stored on ice for analysis by MS. Control samples containing 50 μM peptide in the buffer were also prepared.
Prior to matrix-assisted laser desorption and ionization time-of-flight MS (MALDI-TOF MS) analysis, the samples were desalted using C18 ZipTips (Millipore Corporation, Billerica, MA). The manufacturer’s standard protocol for peptide clean-up was followed. After elution from the ZipTip, 1 μL of each sample was spotted on a MALDI-TOF 384 spot stainless-steel target (Bruker Daltonics, Billerica, MA) and mixed with 1 μl of α-cyano-4-hydroxy-cinnamic acid (α-CHCA) matrix (15 mg/ml α-CHCA in 50% acetonitrile). Each spot was allowed to dry at room temperature. The target was placed in a Bruker Autoflex Speed MALDI-TOF mass spectrometer (Bruker Daltonics, Billerica, MA) equipped with a Nd-YAG 355 nm pulsed laser. The data were collected in reflectron mode, positive polarity, with an accelerating potential of 19 kV. Each spectrum was the accumulation of 4000 laser shots with complete spot raster of the laser during data collection. External calibration was performed using 0.5 μl α-CHCA and 0.5 μl of peptide standard (part# 206195, Bruker Daltonics, Billerica, MA) with Angiotensin II (monoisotopic mass [MH^+ ] 1046.5418), Angiotensin I (monoisotopic mass [MH^+ ] 1296.6848), SubstanceP (monoisotopic mass [MH^+] 1347.7354), Bombesin (monoisotopic mass [MH^+] 1619.8223), ACTH clip 1–17 (monoisotopic mass [MH^+] 2093.0862), ACTH clip 18–39 (monoisotopic mass [MH^+] 2465.1983), and Somatostatin 28 (monoisotopic mass [MH^+] 3147.4710). The Bruker data files were converted to mzXML files using MSConvertGUI tool in ProteoWizard open-source software. The mzXML files were viewed and analyzed with mMass v5.5 open-source software.

endogenous β2-AR = endogenous β2-AR (Homo sapiens, UniProt P07550); assay: cell-based; details: HEK-293T, with forskolin 2 μM, 10 min, mean ± SD
endogenous β2-AR, sequence (P07550 whole entry): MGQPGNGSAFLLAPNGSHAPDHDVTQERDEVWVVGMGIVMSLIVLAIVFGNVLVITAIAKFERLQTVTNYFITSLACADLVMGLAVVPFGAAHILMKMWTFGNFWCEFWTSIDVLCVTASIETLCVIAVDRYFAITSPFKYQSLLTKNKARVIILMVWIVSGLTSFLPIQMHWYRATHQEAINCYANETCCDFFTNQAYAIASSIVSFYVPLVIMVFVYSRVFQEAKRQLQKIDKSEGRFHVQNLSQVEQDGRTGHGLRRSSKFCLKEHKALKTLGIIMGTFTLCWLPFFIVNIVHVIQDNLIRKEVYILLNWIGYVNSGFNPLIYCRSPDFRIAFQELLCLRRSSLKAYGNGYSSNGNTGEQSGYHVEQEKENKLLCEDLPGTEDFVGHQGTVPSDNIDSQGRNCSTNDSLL
Description: as §1

T1 sequence (P07550 whole entry): as above
β2-AR SPASM sensors, sequence (P07550 whole entry, one chain of several): as the sequence (P07550 whole entry) above
β2-AR SPASM sensors, sequence (P50148 333-359, one chain of several, further chain): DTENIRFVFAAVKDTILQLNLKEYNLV

**Q.** What does the source list for `CNC[C@H](O)c1ccc(O)c(O)c1` [Epinephrine, epinephrine]?
**A.** Maximum cAMP (Emax) (β2-AR SPASM sensors; b2-AR-(-) sensor): 100%; Maximum cAMP (Emax) (β2-AR SPASM sensors; b2-AR-(Qp) sensor): 182.89%; Maximum cAMP (Emax) (β2-AR SPASM sensors; b2-AR-(Sp) sensor): 197.09%

**Q.** Which “effect of PKC inhibitor on enhanced cAMP response of Gαq-overexpressing cells” value (PKC) does the source give for `CN(C)CCCn1cc(C2=C(c3c[nH]c4ccccc34)C(=O)NC2=O)c2ccccc21` [BimI] here?
**A.** Its value is “did not block the enhanced cAMP response”.

**Q.** With `CC[C@H](C)[C@H](NC(=O)[C@H](CC(N)=O)NC(=O)[C@H](CCC(=O)O)NC(=O)[C@@H](NC(=O)[C@H](CC(=O)O)NC(=O)CCCC[C@@H]1SC[C@@H]2NC(=O)N[C@@H]21)[C@@H](C)O)C(=O)N[C@@H](CCCNC(=N)N)C(=O)N[C@@H](CCCNC(=N)N)C(=O)N[C@H](C(=O)N[C@@H](Cc1ccccc1)C(=O)N[C@@H](CC(N)=O)C(=O)N[C@@H](CC(=O)O)C(=O)N[C@@H](CS)C(=O)N[C@@H](CCCNC(=N)N)C(=O)N[C@@H](CC(=O)O)C(=O)N[C@H](C(=O)N[C@H](C(=O)N[C@@H](CCC(N)=O)C(=O)N[C@@H](CCCNC(=N)N)C(=O)N[C@@H](CCSC)C(=O)N[C@@H](Cc1c[nH]cn1)C(=O)N[C@@H](CC(C)C)C(=O)N[C@@H](CCCNC(=N)N)C(=O)N[C@@H](CCC(N)=O)C(=O)N[C@@H](Cc1ccc(O)cc1)C(=O)N[C@@H](CCC(=O)O)C(=O)N[C@@H](CC(C)C)C(=O)N[C@@H](CC(C)C)C(=O)O)[C@@H](C)CC)[C@@H](C)CC)C(C)C` [bioSp] (Biotin-DTENIRRVFNDCRDIIQRMHLRQYELL-OH) as the molecule, how does the “mean bound (100-Supernatant)” value (β2-AR-mCer; isoproterenol 100 μM, total incl. nonspecific) read?
**A.** The value was 54.8625%.

**Q.** What about the “receptor specifically pulled down (bound)” value (β2-AR-mCer; nonspecific subtracted, mean) of the same molecule?
**A.** Its value is 45% and 45.31%.

**Q.** With “Qp → Sp: Qp mutant L349Q, E355Q, mimicking Sp (DTENIRFVFAAVKDTIQQLNLKQYNLV)” as the molecule, how does the “V1A-R G-protein activation in words” value (V1A-R with purified Gαq) read?
**A.** Its value is “increased cognate (Qp → Sp > Qp)”.

**Q.** What about the “V1A-R IP1 levels in words” value (V1A-R SPASM sensors) of the same molecule?
**A.** Its value is “increased cognate (Qp → Sp > Qp)”.

**Q.** For `COc1ccc2c(c1)c(C1=C(c3c[nH]c4ccccc34)C(=O)NC1=O)cn2CCCN(C)C` [Gö6983], which “effect of PKC inhibitor on enhanced cAMP response of Gαq-overexpressing cells” value (PKC) is on record?
**A.** The value was “did not block the enhanced cAMP response”.

**Q.** For “N-term fragment: N-terminal fragment generated by photocleavage of PC-Qp (DTENIRFVFAAVKDTILQLNLKE)”, which “N-term fragment cleaved (fraction, MALDI-MS)” value ([1]; minus UV, replicate 1) is on record?
**A.** Its value is 0.33.

**Q.** And the “N-term fragment cleaved (fraction, MALDI-MS)” value ([1]; minus UV, replicate 2)?
**A.** The value was 0.24.

**Q.** And the “N-term fragment cleaved (fraction, MALDI-MS)” value ([1]; minus UV, replicate 3)?
**A.** The value was 0.38.

**Q.** And the “N-term fragment cleaved (fraction, MALDI-MS)” value ([1]; plus UV (350 nm, 2 min), replicate 1)?
**A.** Its value is 0.91.

**Q.** And the “N-term fragment cleaved (fraction, MALDI-MS)” value ([1]; plus UV (350 nm, 2 min), replicate 2)?
**A.** The value was 0.91.

**Q.** What about the “N-term fragment cleaved (fraction, MALDI-MS)” value ([1]; plus UV (350 nm, 2 min), replicate 3) of the same molecule?
**A.** The value was 0.92.

**Q.** What does the source list for `CC(Cc1ccc(O)cc1)NCC(O)c1cc(O)cc(O)c1` (centres unmarked) [Fenoterol, fenoterol]?
**A.** Emax (β2-AR SPASM sensors; b2-AR-(-) sensor): 97.5%; Emax (β2-AR SPASM sensors; b2-AR-(Qp) sensor): 171%; Emax (β2-AR SPASM sensors; b2-AR-(Sp) sensor): 131%; Emax (endogenous β2-AR; Gαq overexpressing): 138 ± 3.15%; Emax (endogenous β2-AR; untransfected (Un.)): 94.5 ± 3.05%
